Data published in the NIST ThermoML archive (doi:10.1016/j.jct.2008.01.017).
± gives the expanded uncertainty stated by the source.

How the values were obtained:
[1] = refractive index (Na D-line) (dimensionless); details: 293.15 K; 101.33 kPa; Liquid; Standard Abbe refractometry
[2] = 293.15 K, 101.33 kPa, Liquid
[3] = excess molar enthalpy (molar enthalpy of mixing); xn = mol fraction of the nth substance listed; details: 101 kPa, Liquid, Flow calorimetry

`CC#N` [acetonitrile] showed a refractive index [1] of 1.3441 ± 0.0007 and a mass density ([2]; Vibrating tube method) of 784.6 ± 0.2 kg/m3.
With `CCCCCCCO` [heptan-1-ol] the refractive index [1] was 1.4245 ± 0.0007 and the mass density [2] was 822.3 ± 0.7 kg/m3.
Work on `CCCCCCCO` [heptan-1-ol] + CC#N yielded an excess molar enthalpy ([3]; 298.15 K, x1 = 0.0529) of 0.141 ± 0.00335 kcal/mol, an excess molar enthalpy ([3]; 298.15 K, x1 = 0.1128) of 0.261 ± 0.00454 kcal/mol and an excess molar enthalpy ([3]; 298.15 K, x1 = 0.1738) of 0.365 ± 0.00598 kcal/mol. It also gave an excess molar enthalpy ([3]; 298.15 K, x1 = 0.2352) of 0.435 ± 0.00693 kcal/mol, an excess molar enthalpy ([3]; 298.15 K, x1 = 0.2962) of 0.485 ± 0.00765 kcal/mol and an excess molar enthalpy ([3]; 298.15 K, x1 = 0.3561) of 0.516 ± 0.00813 kcal/mol. The excess molar enthalpy ([3]; 298.15 K, x1 = 0.4143) was 0.53 ± 0.00837 kcal/mol, the excess molar enthalpy ([3]; 298.15 K, x1 = 0.4701) was 0.532 ± 0.00837 kcal/mol and the excess molar enthalpy ([3]; 298.15 K, x1 = 0.5231) was 0.523 ± 0.00837 kcal/mol. It also gave an excess molar enthalpy ([3]; 298.15 K, x1 = 0.573) of 0.505 ± 0.00813 kcal/mol, an excess molar enthalpy ([3]; 298.15 K, x1 = 0.6194) of 0.479 ± 0.00765 kcal/mol and an excess molar enthalpy ([3]; 298.15 K, x1 = 0.6623) of 0.449 ± 0.00717 kcal/mol. For the same molecule, the excess molar enthalpy ([3]; 298.15 K, x1 = 0.7015) was 0.416 ± 0.00669 kcal/mol, the excess molar enthalpy ([3]; 298.15 K, x1 = 0.7692) was 0.349 ± 0.00574 kcal/mol and the excess molar enthalpy ([3]; 298.15 K, x1 = 0.8038) was 0.303 ± 0.00502 kcal/mol. The excess molar enthalpy ([3]; 298.15 K, x1 = 0.8621) was 0.221 ± 0.00382 kcal/mol, the excess molar enthalpy ([3]; 298.15 K, x1 = 0.9271) was 0.116 ± 0.00287 kcal/mol and the excess molar enthalpy ([3]; 313.15 K, x1 = 0.0698) was 0.186 ± 0.0043 kcal/mol. It also gave an excess molar enthalpy ([3]; 313.15 K, x1 = 0.1417) of 0.326 ± 0.00526 kcal/mol, an excess molar enthalpy ([3]; 313.15 K, x1 = 0.2146) of 0.43 ± 0.00693 kcal/mol and an excess molar enthalpy ([3]; 313.15 K, x1 = 0.2872) of 0.504 ± 0.00789 kcal/mol. It also gave an excess molar enthalpy ([3]; 313.15 K, x1 = 0.3584) of 0.545 ± 0.0086 kcal/mol, an excess molar enthalpy ([3]; 313.15 K, x1 = 0.427) of 0.56 ± 0.00884 kcal/mol and an excess molar enthalpy ([3]; 313.15 K, x1 = 0.4923) of 0.561 ± 0.00884 kcal/mol. It also gave an excess molar enthalpy ([3]; 313.15 K, x1 = 0.5533) of 0.548 ± 0.0086 kcal/mol, an excess molar enthalpy ([3]; 313.15 K, x1 = 0.6096) of 0.52 ± 0.00813 kcal/mol and an excess molar enthalpy ([3]; 313.15 K, x1 = 0.6608) of 0.481 ± 0.00765 kcal/mol. It also gave an excess molar enthalpy ([3]; 313.15 K, x1 = 0.707) of 0.438 ± 0.00693 kcal/mol, an excess molar enthalpy ([3]; 313.15 K, x1 = 0.7482) of 0.392 ± 0.00621 kcal/mol and an excess molar enthalpy ([3]; 313.15 K, x1 = 0.7845) of 0.348 ± 0.00574 kcal/mol. The excess molar enthalpy ([3]; 313.15 K, x1 = 0.8163) was 0.304 ± 0.00502 kcal/mol, the excess molar enthalpy ([3]; 313.15 K, x1 = 0.8439) was 0.26 ± 0.0043 kcal/mol and the excess molar enthalpy ([3]; 313.15 K, x1 = 0.8642) was 0.228 ± 0.00382 kcal/mol. For the same molecule, the excess molar enthalpy ([3]; 313.15 K, x1 = 0.9283) was 0.121 ± 0.00287 kcal/mol, the excess molar enthalpy ([3]; 323.15 K, x1 = 0.0704) was 0.19 ± 0.00454 kcal/mol and the excess molar enthalpy ([3]; 323.15 K, x1 = 0.1429) was 0.348 ± 0.00574 kcal/mol. It also gave an excess molar enthalpy ([3]; 323.15 K, x1 = 0.2161) of 0.469 ± 0.00741 kcal/mol, an excess molar enthalpy ([3]; 323.15 K, x1 = 0.2891) of 0.541 ± 0.0086 kcal/mol and an excess molar enthalpy ([3]; 323.15 K, x1 = 0.3605) of 0.574 ± 0.00908 kcal/mol. It also gave an excess molar enthalpy ([3]; 323.15 K, x1 = 0.4293) of 0.585 ± 0.00932 kcal/mol, an excess molar enthalpy ([3]; 323.15 K, x1 = 0.4946) of 0.58 ± 0.00908 kcal/mol and an excess molar enthalpy ([3]; 323.15 K, x1 = 0.5555) of 0.565 ± 0.00884 kcal/mol. It also gave an excess molar enthalpy ([3]; 323.15 K, x1 = 0.6117) of 0.54 ± 0.0086 kcal/mol, an excess molar enthalpy ([3]; 323.15 K, x1 = 0.6629) of 0.498 ± 0.00789 kcal/mol and an excess molar enthalpy ([3]; 323.15 K, x1 = 0.7089) of 0.452 ± 0.00717 kcal/mol. The excess molar enthalpy ([3]; 323.15 K, x1 = 0.7499) was 0.404 ± 0.00645 kcal/mol, the excess molar enthalpy ([3]; 323.15 K, x1 = 0.786) was 0.359 ± 0.00574 kcal/mol and the excess molar enthalpy ([3]; 323.15 K, x1 = 0.8177) was 0.315 ± 0.00526 kcal/mol. It also gave an excess molar enthalpy ([3]; 323.15 K, x1 = 0.8451) of 0.273 ± 0.00454 kcal/mol, an excess molar enthalpy ([3]; 323.15 K, x1 = 0.8642) of 0.242 ± 0.00406 kcal/mol and an excess molar enthalpy ([3]; 323.15 K, x1 = 0.9283) of 0.133 ± 0.00311 kcal/mol.
In the case of `CCCCCCCCO` [octan-1-ol], the refractive index [1] is reported as 1.4293 ± 0.0007 and the mass density [2] is reported as 825.8 ± 0.6 kg/m3.
Work on `CCCCCCCCO` [octan-1-ol] + CC#N yielded an excess molar enthalpy ([3]; 298.15 K, x1 = 0.0476) of 0.161 ± 0.00406 kcal/mol, an excess molar enthalpy ([3]; 298.15 K, x1 = 0.0971) of 0.282 ± 0.00621 kcal/mol and an excess molar enthalpy ([3]; 298.15 K, x1 = 0.1479) of 0.375 ± 0.00621 kcal/mol. For the same molecule, the excess molar enthalpy ([3]; 298.15 K, x1 = 0.1998) was 0.449 ± 0.00717 kcal/mol, the excess molar enthalpy ([3]; 298.15 K, x1 = 0.2521) was 0.502 ± 0.00789 kcal/mol and the excess molar enthalpy ([3]; 298.15 K, x1 = 0.3044) was 0.541 ± 0.0086 kcal/mol. The excess molar enthalpy ([3]; 298.15 K, x1 = 0.3562) was 0.566 ± 0.00908 kcal/mol, the excess molar enthalpy ([3]; 298.15 K, x1 = 0.407) was 0.58 ± 0.00908 kcal/mol and the excess molar enthalpy ([3]; 298.15 K, x1 = 0.471) was 0.583 ± 0.00932 kcal/mol. The excess molar enthalpy ([3]; 298.15 K, x1 = 0.5316) was 0.565 ± 0.00884 kcal/mol, the excess molar enthalpy ([3]; 298.15 K, x1 = 0.5882) was 0.539 ± 0.0086 kcal/mol and the excess molar enthalpy ([3]; 298.15 K, x1 = 0.6879) was 0.459 ± 0.00741 kcal/mol. For the same molecule, the excess molar enthalpy ([3]; 298.15 K, x1 = 0.7685) was 0.369 ± 0.00598 kcal/mol, the excess molar enthalpy ([3]; 298.15 K, x1 = 0.802) was 0.328 ± 0.00526 kcal/mol and the excess molar enthalpy ([3]; 298.15 K, x1 = 0.8567) was 0.245 ± 0.00406 kcal/mol. The excess molar enthalpy ([3]; 298.15 K, x1 = 0.8975) was 0.176 ± 0.00311 kcal/mol, the excess molar enthalpy ([3]; 298.15 K, x1 = 0.9375) was 0.117 ± 0.00287 kcal/mol and the excess molar enthalpy ([3]; 313.15 K, x1 = 0.063) was 0.205 ± 0.00478 kcal/mol. It also gave an excess molar enthalpy ([3]; 313.15 K, x1 = 0.1288) of 0.361 ± 0.00598 kcal/mol, an excess molar enthalpy ([3]; 313.15 K, x1 = 0.1966) of 0.487 ± 0.00789 kcal/mol and an excess molar enthalpy ([3]; 313.15 K, x1 = 0.2652) of 0.568 ± 0.00908 kcal/mol. For the same molecule, the excess molar enthalpy ([3]; 313.15 K, x1 = 0.3335) was 0.614 ± 0.0098 kcal/mol, the excess molar enthalpy ([3]; 313.15 K, x1 = 0.4003) was 0.635 ± 0.01 kcal/mol and the excess molar enthalpy ([3]; 313.15 K, x1 = 0.4647) was 0.635 ± 0.01 kcal/mol. For the same molecule, the excess molar enthalpy ([3]; 313.15 K, x1 = 0.5259) was 0.62 ± 0.0098 kcal/mol, the excess molar enthalpy ([3]; 313.15 K, x1 = 0.583) was 0.592 ± 0.00932 kcal/mol and the excess molar enthalpy ([3]; 313.15 K, x1 = 0.6357) was 0.551 ± 0.00884 kcal/mol. The excess molar enthalpy ([3]; 313.15 K, x1 = 0.6837) was 0.501 ± 0.00789 kcal/mol, the excess molar enthalpy ([3]; 313.15 K, x1 = 0.7268) was 0.452 ± 0.00717 kcal/mol and the excess molar enthalpy ([3]; 313.15 K, x1 = 0.7653) was 0.404 ± 0.00645 kcal/mol. For the same molecule, the excess molar enthalpy ([3]; 313.15 K, x1 = 0.7992) was 0.359 ± 0.00574 kcal/mol, the excess molar enthalpy ([3]; 313.15 K, x1 = 0.8288) was 0.315 ± 0.00526 kcal/mol and the excess molar enthalpy ([3]; 313.15 K, x1 = 0.8762) was 0.236 ± 0.00406 kcal/mol. For the same molecule, the excess molar enthalpy ([3]; 313.15 K, x1 = 0.9349) was 0.124 ± 0.00311 kcal/mol, the excess molar enthalpy ([3]; 323.15 K, x1 = 0.0633) was 0.218 ± 0.00526 kcal/mol and the excess molar enthalpy ([3]; 323.15 K, x1 = 0.1295) was 0.397 ± 0.00669 kcal/mol. For the same molecule, the excess molar enthalpy ([3]; 323.15 K, x1 = 0.1975) was 0.541 ± 0.0086 kcal/mol, the excess molar enthalpy ([3]; 323.15 K, x1 = 0.2663) was 0.613 ± 0.0098 kcal/mol and the excess molar enthalpy ([3]; 323.15 K, x1 = 0.3347) was 0.655 ± 0.0103 kcal/mol. For the same molecule, the excess molar enthalpy ([3]; 323.15 K, x1 = 0.4017) was 0.672 ± 0.0105 kcal/mol, the excess molar enthalpy ([3]; 323.15 K, x1 = 0.4661) was 0.669 ± 0.0105 kcal/mol and the excess molar enthalpy ([3]; 323.15 K, x1 = 0.5273) was 0.651 ± 0.0103 kcal/mol. For the same molecule, the excess molar enthalpy ([3]; 323.15 K, x1 = 0.5844) was 0.619 ± 0.0098 kcal/mol, the excess molar enthalpy ([3]; 323.15 K, x1 = 0.637) was 0.575 ± 0.00908 kcal/mol and the excess molar enthalpy ([3]; 323.15 K, x1 = 0.6849) was 0.529 ± 0.00837 kcal/mol. It also gave an excess molar enthalpy ([3]; 323.15 K, x1 = 0.7279) of 0.478 ± 0.00765 kcal/mol, an excess molar enthalpy ([3]; 323.15 K, x1 = 0.7663) of 0.428 ± 0.00693 kcal/mol and an excess molar enthalpy ([3]; 323.15 K, x1 = 0.8001) of 0.383 ± 0.00621 kcal/mol. It also gave an excess molar enthalpy ([3]; 323.15 K, x1 = 0.8296) of 0.335 ± 0.0055 kcal/mol, an excess molar enthalpy ([3]; 323.15 K, x1 = 0.8768) of 0.248 ± 0.0043 kcal/mol and an excess molar enthalpy ([3]; 323.15 K, x1 = 0.9352) of 0.131 ± 0.00335 kcal/mol.
